From the RepoRT retention time repository (doi:10.1021/acs.analchem.2c02893)

Test: RP, Thermo Scientific Acclaim RSLC 120 C18, 100 × 2.1 mm, 2.2 µm, 30 °C, 0.2 mL/min, estimated dead time 1.1 min; A: 90% water + 10% methanol + 0.01% formic acid + 5 mM ammonium formate, pH 3.61; B: methanol + 0.01% formic acid + 5 mM ammonium formate, pH 3.61; gradient (min/%B) 0/1 1/1 2/39 13/99.9 15/99.9 15.1/1 20.1/1
Settings: stereoisomer not certain

Structure (SMILES) | LC retention time [min]
COc1ccc2c(c1)c(CC(=O)O)c(C)n2C(=O)c1ccc(Cl)cc1 [Indomethacin] | 10.3
O=C(Nc1ccccc1)c1ccccc1I [Benodanil] | 8.02
CCCSP(=S)(OCC)Oc1ccc(Cl)cc1Cl (stereo not drawn) [Tokuthion (Prothiophos)] | 13.6
CCCC(C(=O)c1ccc2c(c1)OCO2)N1CCCC1 (stereo not drawn) [MDPV] | 5.18
CNC(=O)Oc1cc(C)c(C)c(C)c1 [Trimethacarb (3.4.5-)] | 8.1
O=c1[nH]c2ccccc2n1C1CCN(CCCC(c2ccc(F)cc2)c2ccc(F)cc2)CC1 [Pimozide] | 8.73
Cc1ccsc1C=CC1=NCCCN1C [Morantel] | 4.36
CC(C)(C)C(O)C(Oc1ccc(-c2ccccc2)cc1)n1cncn1 (stereo not drawn) [Bitertanol] | 11.3
COP(=S)(OC)Oc1ccc([N+](=O)[O-])cc1Cl [Dicapthon] | 10.5
Nc1ccc2c(c1)C(c1ccccc1F)=NCC(=O)N2 [Flunitrazepam-7-Amino-desmethyl] | 4.62
CC(=O)OCC(=O)C12N=C(C)OC1CC1C3CCC4=CC(=O)C=CC4(C)C3C(O)CC12C (stereo not drawn) [Deflazacort] | 9.35
Cc1[nH]c(C)c(Cl)c(=O)c1Cl [Clopidol] | 4.2
CCOC(=O)C1(c2ccccc2)CCC=CC1NC (stereo not drawn) [Tilidine-Nor] | 5.28
CN(C)CCCN1c2ccccc2Sc2cccnc21 [Prothipendyl] | 7.21
CON(C)C(=O)Nc1ccc(Br)cc1 [Metobromuron] | 8.15
COc1ccc2c(c1)N(CC(C)CN(C)C)c1ccccc1S2 (stereo not drawn) [Levomepromazine] | 8.14
CN(C)C(CCOc1cccc2ccccc12)c1ccccc1 (stereo not drawn) [Dapoxetine] | 8.34
CCOC(=O)C1=C(COCCN)NC(C)=C(C(=O)OC)C1c1ccccc1Cl (stereo not drawn) [Amlodipine] | 8.36
CC(=O)OC1C=CC2C3Cc4ccc(O)c5c4C2(CCN3C)C1O5 (stereo not drawn) [MAM (6-O-Monoacetylmorphine)] | 3.75
OCc1cc(C(O)CNCCCCCCOCCCCc2ccccc2)ccc1O (stereo not drawn) [Salmeterol] | 8.83
CC(=O)c1ccc2c(c1)N(CC(C)N(C)C)c1ccccc1S2 (stereo not drawn) [Aceprometazine] | 7.26

Structure (SMILES) | LC retention time [min]
CCN(C(C)=O)c1cccc(-c2ccnc3c(C#N)cnn23)c1 [Zaleplon] | 6.61
O=C(O)c1ccccc1C(=O)Nc1ccc(S(=O)(=O)Nc2nccs2)cc1 [Sulfathiazole-Phthalyl] | 4.66
CCOCCc1ccc(OCCNc2ncnc(CC)c2Cl)c(C)c1C [Pyrimidifen] | 12.5
CC1=NNC(=O)N(N=Cc2cccnc2)C1 [Pymetrozine] | 4.01
CCOCn1c(-c2ccc(Cl)cc2)c(C#N)c(Br)c1C(F)(F)F [Chlorfenapyr] | 11.8
O=C(Oc1cccc2ccccc12)c1cn(Cc2ccc(F)cc2)c2ccccc12 [FDU-PB-22] | 12.6
CCOP(=S)(OCC)Oc1cc(C)nc(N(CC)CC)n1 [Pirimiphos-ethyl] | 12.3
CCC(C)C1OC2(C=CC1C)CC1CC(CC=C(C)C(OC3CC(OC)C(OC4CC(OC)C(NC)C(C)O4)C(C)O3)C(C)C=CC=C3COC4C(O)C(C)=CC(C(=O)O1)C34O)O2 (stereo not drawn) [Emamectin B1a] | 12.4
CCOc1nc2cccc(C(=O)O)c2n1Cc1ccc(-c2ccccc2-c2nn[nH]n2)cc1 [Candesartan] | 7.93
O=C(Nc1ccc(C(=O)O)c(O)c1)c1ccccc1 [Salicylic acid-4-Benzamido] | 5.47
CCCCC(C#N)(Cn1cncn1)c1ccc(Cl)cc1 (stereo not drawn) [Myclobutanil] | 9.74
CCC(N)Cc1c[nH]c2ccccc12 (stereo not drawn) [ET- alpha] | 5.04
CCC(Cc1ccc2c(c1)OCO2)NC (stereo not drawn) [MBDB] | 4.66
COc1nccnc1NS(=O)(=O)c1ccc(N)cc1 [Sulfalene] | 4.44
CNC(=O)Oc1ccc2c(c1)C1(C)CCN(C)C1N2C (stereo not drawn) [Physostigmine] | 3.89
NC(Cc1cc(I)c(O)c(I)c1)C(=O)O (stereo not drawn) [Tyrosine-3.5-Diiodo] | 4.77
COC(C)C(O)(C(=O)OCC1=CCN2CCC(O)C12)C(C)C (stereo not drawn) [Heliotrine] | 4.27
COc1ccc2c3c1OC1C(O)CCC4C(C2)N(C)CCC341 (stereo not drawn) [Codeine-Dihydro] | 3.36
CCCCCn1cc(C(=O)CC(C)(C)C(C)(C)O)c2ccccc21 [HTMPIPO-4] | 11.6
Cc1cc(C)cc(OCC2CNC(=O)O2)c1 (stereo not drawn) [Metaxalone] | 7.86
COc1cc(N)c(Cl)cc1C(=O)NC1CCN(CCCOc2ccc(F)cc2)CC1OC (stereo not drawn) [Cisapride] | 6.73

Structure (SMILES) | LC retention time [min]
CCCC(Cc1ccccc1)N1CCCC1 (stereo not drawn) [Prolintane] | 5.56
CN(C)CCC(c1ccc(Br)cc1)c1ccccn1 (stereo not drawn) [Brompheniramine] | 6.56
NCCC(Oc1ccc(C(F)(F)F)cc1)c1ccccc1 (stereo not drawn) [Fluoxetine-nor] | 8.58
N#CC(CCc1ccc(Cl)cc1)(Cn1cncn1)c1ccccc1 (stereo not drawn) [Fenbuconazole] | 10.4
O=C(Nc1cccc(C2=NCCN2)c1)Nc1cccc(C2=NCCN2)c1 [Imidocarb] | 3.78
COCC(=O)N(c1c(C)cccc1C)N1CCOC1=O [Oxadixyl] | 6.29
COc1cc(OC)nc(NC(=O)NS(=O)(=O)c2ncccc2C(F)(F)F)n1 [Flazasulfuron] | 8.56
Cc1nn(C)c(Oc2ccccc2)c1C=NOCc1ccc(C(=O)OC(C)(C)C)cc1 [Fenpyroximate] | 13.2
Cc1ccc(C(=O)C(C)N2CCCC2)cc1 (stereo not drawn) [MePPP (4-4-Methyl-pyrrolidinopropiophenone)] | 4.76
CC(C)(C)C(O)C(=Cc1ccc(Cl)cc1Cl)n1cncn1 (stereo not drawn) [Diniconazole] | 11.5
CCNC1C2CCC(C2)C1c1ccccc1 (stereo not drawn) [Fencamfamine] | 6.08
O=C(O)Cn1c(=O)sc2cccc(Cl)c21 [Benazolin] | 5.58
CNC(C)Cc1ccc(O)c(OC)c1 (stereo not drawn) [HMMA] | 3.19
CCCCCn1cc(C(=O)c2cccc3ccccc23)c2cc(O)ccc21 [JWH-018-M-5-OH-Ind] | 11.3
COc1cc(CCN)c(OC)cc1Br [2C-B] | 5.56
CNC(C)C(=O)c1ccc(F)cc1 (stereo not drawn) [Methcathinone (4-F-/ 4-FMC. Flephedrone)] | 3.91
CCOP(=S)(OCC)Oc1nc(Cl)c(Cl)cc1Cl [Chlorpyriphos] | 12.7
CC(C)c1ccc(NC(N)=O)cc1 [Isoproturon-didemethyl (1-(4-Isoprophenyl)urea)] | 7.76
CN1C(=O)CC(C)(c2ccccc2)C1=O (stereo not drawn) [Methsuximide] | 6.71
CCCCCCCCCCCC(=O)N(CCO)CCO [Lauryl diethanolamide] | 11.7
Cc1ccccc1N1CCN(CCc2nnc3n2CCCC3)CC1 [Dapiprazole] | 5.66
